Tests used:
[1] = system: Rattus norvegicus; test: Toxicity in Wistar rat assessed as total bilirubin at 100 mg/kg, po bid for 28 days (reference value: 0.14 +/- 0.01 mg/dL); type: organism-based; set-up: dose 100 mg/kg, route oral; conditions: in vivo, 672 h
[2] = system: Rattus norvegicus; test: Toxicity in Wistar rat assessed as alanine aminotransferase at 100 mg/kg, po bid for 28 days (reference value: 20.78 +/- 1.31 U/L); type: organism-based; set-up: dose 100 mg/kg, route oral; conditions: in vivo, 672 h
[3] = system: Rattus norvegicus; test: Toxicity in Wistar rat assessed as aspartate aminotransferase at 100 mg/kg, po bid for 28 days (reference value: 147.16 +/- 11.75 U/L); type: organism-based; set-up: dose 100 mg/kg, route oral; conditions: in vivo, 672 h
[4] = system: Blood; test: Antiinflammatory activity in human whole blood assessed as inhibition of LPS-induced TNFalpha secretion by ELISA; type: functional, tissue-based
[5] = system: Rattus norvegicus; test: Toxicity in Wistar rat assessed as RBC count at 100 mg/kg, po bid for 28 days (reference value: 7.38 +/- 0.11 10^6/ul); type: organism-based; set-up: dose 100 mg/kg, route oral; conditions: in vivo, 672 h
[6] = system: Rattus norvegicus; test: Toxicity in Wistar rat assessed as WBC count at 100 mg/kg, po bid for 28 days (reference value: 8.20 +/- 0.33 10^3/ul); type: organism-based; set-up: dose 100 mg/kg, route oral; conditions: in vivo, 672 h
[7] = biological target: T1, Disintegrin and metalloproteinase domain-containing protein 17 (Homo sapiens, UniProt P78536); test: Inhibition of human catalytic domain of TACE assessed as inhibit the cleavage of the substrate by fluorescence-based FRET assay
T1 sequence (P78536 whole entry, the tested form may be a part): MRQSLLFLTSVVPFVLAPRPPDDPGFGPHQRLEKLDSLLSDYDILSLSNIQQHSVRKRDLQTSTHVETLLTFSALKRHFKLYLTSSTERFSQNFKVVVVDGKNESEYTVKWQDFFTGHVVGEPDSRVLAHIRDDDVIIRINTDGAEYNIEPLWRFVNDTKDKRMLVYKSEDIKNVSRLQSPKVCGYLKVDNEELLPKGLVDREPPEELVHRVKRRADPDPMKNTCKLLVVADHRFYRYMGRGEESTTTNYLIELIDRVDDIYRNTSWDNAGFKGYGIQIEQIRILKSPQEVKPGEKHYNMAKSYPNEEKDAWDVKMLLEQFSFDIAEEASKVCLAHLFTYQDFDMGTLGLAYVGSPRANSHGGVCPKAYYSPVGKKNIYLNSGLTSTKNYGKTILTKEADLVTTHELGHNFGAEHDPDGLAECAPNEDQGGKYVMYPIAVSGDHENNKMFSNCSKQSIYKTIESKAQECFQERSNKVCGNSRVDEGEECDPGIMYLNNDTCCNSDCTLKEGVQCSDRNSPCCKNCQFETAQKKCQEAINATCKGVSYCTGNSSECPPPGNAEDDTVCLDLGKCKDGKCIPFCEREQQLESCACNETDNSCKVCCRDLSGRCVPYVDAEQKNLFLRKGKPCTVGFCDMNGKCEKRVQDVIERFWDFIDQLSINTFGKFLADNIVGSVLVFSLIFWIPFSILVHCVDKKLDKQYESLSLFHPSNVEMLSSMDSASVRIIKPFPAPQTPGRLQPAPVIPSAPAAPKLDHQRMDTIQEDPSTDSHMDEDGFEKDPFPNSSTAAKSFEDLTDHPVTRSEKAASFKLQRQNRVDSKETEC

[8] = biological target: T2, Disintegrin and metalloproteinase domain-containing protein 10 (Homo sapiens, UniProt O14672); test: Inhibition of ADAM10 (unknown origin) using fluorescent substrate by fluorescence-based FRET assay
T2 sequence (O14672 whole entry): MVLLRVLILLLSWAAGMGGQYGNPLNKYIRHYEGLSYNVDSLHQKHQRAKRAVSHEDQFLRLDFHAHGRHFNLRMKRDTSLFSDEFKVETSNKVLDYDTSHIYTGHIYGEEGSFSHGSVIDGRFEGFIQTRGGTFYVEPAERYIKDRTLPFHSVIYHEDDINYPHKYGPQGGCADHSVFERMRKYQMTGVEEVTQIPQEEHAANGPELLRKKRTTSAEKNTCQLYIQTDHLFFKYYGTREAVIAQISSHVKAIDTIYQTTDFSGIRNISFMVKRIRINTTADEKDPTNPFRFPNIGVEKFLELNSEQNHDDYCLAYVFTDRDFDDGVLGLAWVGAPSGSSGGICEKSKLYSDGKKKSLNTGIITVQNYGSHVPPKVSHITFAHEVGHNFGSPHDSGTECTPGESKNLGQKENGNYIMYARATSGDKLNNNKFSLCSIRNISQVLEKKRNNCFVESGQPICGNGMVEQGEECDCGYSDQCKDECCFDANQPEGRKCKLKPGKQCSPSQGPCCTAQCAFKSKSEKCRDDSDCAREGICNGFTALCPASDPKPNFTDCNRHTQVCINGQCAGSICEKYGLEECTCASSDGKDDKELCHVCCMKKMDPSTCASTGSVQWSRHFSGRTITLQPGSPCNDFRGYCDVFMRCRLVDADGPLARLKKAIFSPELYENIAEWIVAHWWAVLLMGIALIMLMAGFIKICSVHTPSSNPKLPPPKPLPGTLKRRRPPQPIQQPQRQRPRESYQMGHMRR

[9] = biological target: 72 kDa type IV collagenase (Homo sapiens, UniProt P08253); test: Inhibition of MMP2 (unknown origin) by fluorescence-based FRET assay
Chain of 72 kDa type IV collagenase (P08253 whole entry): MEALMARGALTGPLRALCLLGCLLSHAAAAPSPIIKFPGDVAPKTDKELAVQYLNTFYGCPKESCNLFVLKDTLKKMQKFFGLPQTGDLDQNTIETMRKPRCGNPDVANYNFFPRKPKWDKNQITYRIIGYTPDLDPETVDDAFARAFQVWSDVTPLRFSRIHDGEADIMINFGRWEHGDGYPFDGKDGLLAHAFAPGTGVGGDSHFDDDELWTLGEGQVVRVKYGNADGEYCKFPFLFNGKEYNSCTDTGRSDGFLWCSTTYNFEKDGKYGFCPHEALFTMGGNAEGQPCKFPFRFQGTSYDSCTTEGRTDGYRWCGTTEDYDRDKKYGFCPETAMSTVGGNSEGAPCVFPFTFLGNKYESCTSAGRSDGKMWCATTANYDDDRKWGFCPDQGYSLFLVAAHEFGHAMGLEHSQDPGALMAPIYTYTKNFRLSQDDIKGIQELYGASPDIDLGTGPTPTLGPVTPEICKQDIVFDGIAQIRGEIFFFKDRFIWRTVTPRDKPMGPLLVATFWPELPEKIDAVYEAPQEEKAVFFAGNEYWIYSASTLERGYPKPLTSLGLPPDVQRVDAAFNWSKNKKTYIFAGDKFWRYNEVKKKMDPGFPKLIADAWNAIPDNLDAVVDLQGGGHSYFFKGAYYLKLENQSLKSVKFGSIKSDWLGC

[10] = biological target: T3, Matrilysin (Homo sapiens, UniProt P09237); test: Inhibition of MMP7 (unknown origin) by fluorescence-based FRET assay
T3 sequence (P09237 whole entry): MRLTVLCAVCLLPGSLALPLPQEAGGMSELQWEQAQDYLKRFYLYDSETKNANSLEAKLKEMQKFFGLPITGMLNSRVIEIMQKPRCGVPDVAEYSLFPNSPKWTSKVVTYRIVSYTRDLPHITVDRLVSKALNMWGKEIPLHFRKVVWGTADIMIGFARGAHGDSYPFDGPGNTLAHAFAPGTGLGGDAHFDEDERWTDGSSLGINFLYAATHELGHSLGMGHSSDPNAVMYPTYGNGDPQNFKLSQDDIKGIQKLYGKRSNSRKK

[11] = biological target: Neutrophil collagenase (Homo sapiens, UniProt P22894); test: Inhibition of MMP8 (unknown origin) by fluorescence-based FRET assay
Chain of Neutrophil collagenase (P22894 whole entry): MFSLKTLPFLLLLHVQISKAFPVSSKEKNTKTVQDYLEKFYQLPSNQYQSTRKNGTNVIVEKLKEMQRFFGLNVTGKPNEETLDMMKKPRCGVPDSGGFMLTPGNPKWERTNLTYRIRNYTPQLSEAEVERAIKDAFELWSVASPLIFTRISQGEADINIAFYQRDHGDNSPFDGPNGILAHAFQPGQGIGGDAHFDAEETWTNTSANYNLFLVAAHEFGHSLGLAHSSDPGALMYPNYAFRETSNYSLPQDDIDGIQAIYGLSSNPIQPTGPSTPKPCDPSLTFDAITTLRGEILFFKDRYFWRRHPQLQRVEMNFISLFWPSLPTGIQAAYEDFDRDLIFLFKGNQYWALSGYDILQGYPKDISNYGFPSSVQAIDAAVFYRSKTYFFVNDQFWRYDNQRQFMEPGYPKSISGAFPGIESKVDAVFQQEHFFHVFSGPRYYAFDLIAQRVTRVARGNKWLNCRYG

[12] = biological target: Matrix metalloproteinase-9 (Homo sapiens, UniProt P14780); test: Inhibition of MMP9 (unknown origin) by fluorescence-based FRET assay
Chain of Matrix metalloproteinase-9 (P14780 whole entry): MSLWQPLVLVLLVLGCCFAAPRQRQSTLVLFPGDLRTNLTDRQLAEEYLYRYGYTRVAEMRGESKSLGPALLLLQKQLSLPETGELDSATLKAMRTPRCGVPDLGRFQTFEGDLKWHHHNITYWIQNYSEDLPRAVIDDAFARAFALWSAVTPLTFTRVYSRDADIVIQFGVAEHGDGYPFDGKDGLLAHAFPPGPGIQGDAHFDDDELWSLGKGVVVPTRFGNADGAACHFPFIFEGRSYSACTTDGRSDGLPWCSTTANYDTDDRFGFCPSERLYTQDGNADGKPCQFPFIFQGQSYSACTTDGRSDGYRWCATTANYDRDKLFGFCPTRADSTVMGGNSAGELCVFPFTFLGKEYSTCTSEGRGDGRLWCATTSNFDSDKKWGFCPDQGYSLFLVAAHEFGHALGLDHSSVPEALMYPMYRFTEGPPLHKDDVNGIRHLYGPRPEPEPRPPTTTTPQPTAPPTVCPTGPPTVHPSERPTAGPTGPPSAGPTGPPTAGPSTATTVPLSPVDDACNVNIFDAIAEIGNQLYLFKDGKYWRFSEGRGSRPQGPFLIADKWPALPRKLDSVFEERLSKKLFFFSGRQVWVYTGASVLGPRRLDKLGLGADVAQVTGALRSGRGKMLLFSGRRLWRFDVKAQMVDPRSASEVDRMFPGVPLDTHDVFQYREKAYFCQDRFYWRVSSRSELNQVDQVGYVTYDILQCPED

[13] = biological target: Collagenase 3 (Homo sapiens, UniProt P45452); test: Inhibition of MMP13 (unknown origin) by fluorescence-based FRET assay
[14] = biological target: Matrix metalloproteinase-14 (Homo sapiens, UniProt P50281); test: Inhibition of MMP14 (unknown origin) by fluorescence-based FRET assay
[15] = biological target: T1, Disintegrin and metalloproteinase domain-containing protein 17; test: Ratio of IC50 for human catalytic domain of TACE to IC50 for ADAM10 (unknown origin)
[16] = biological target: T1, Disintegrin and metalloproteinase domain-containing protein 17; test: Ratio of IC50 for human catalytic domain of TACE to IC50 for MMP1 (unknown origin)
[17] = biological target: T1, Disintegrin and metalloproteinase domain-containing protein 17; test: Ratio of IC50 for human catalytic domain of TACE to IC50 for MMP3 (unknown origin)
[18] = biological target: T1, Disintegrin and metalloproteinase domain-containing protein 17; test: Ratio of IC50 for human catalytic domain of TACE to IC50 for MMP8 (unknown origin)
[19] = biological target: T1, Disintegrin and metalloproteinase domain-containing protein 17; test: Ratio of IC50 for human catalytic domain of TACE to IC50 for MMP13 (unknown origin)
[20] = biological target: T1, Disintegrin and metalloproteinase domain-containing protein 17; test: Ratio of IC50 for human catalytic domain of TACE to IC50 for MMP14 (unknown origin)
[21] = Half life in Wistar rat at 5 mg/kg, iv; type: ADME, organism-based; set-up: dose 5 mg/kg, route intravenous; conditions: in vivo
[22] = Elimination rate constant in Wistar rat at 5 mg/kg, iv; type: ADME, organism-based; set-up: dose 5 mg/kg, route intravenous; conditions: in vivo
[23] = Tmax in Wistar rat at 5 mg/kg, po; type: ADME, organism-based; set-up: dose 5 mg/kg, route oral; conditions: in vivo
[24] = system: Rattus norvegicus; test: Half life in Wistar rat at 5 mg/kg, po; type: ADME, organism-based; set-up: dose 5 mg/kg, route oral; conditions: in vivo
[25] = system: Rattus norvegicus; test: Elimination rate constant in Wistar rat at 5 mg/kg, po; type: ADME, organism-based; set-up: dose 5 mg/kg, route oral; conditions: in vivo
[26] = AUC in Wistar rat at 5 mg/kg, po; type: ADME, organism-based; set-up: dose 5 mg/kg, route oral; conditions: plasma
[27] = Oral bioavailability in Wistar rat at 5 mg/kg; type: ADME, organism-based; conditions: in vivo
[28] = system: Rattus norvegicus; test: Toxicity in Wistar rat assessed as adverse changes at 100 mg/kg, po bid for 28 days; type: organism-based; set-up: dose 100 mg/kg, route oral; conditions: in vivo, 672 h
[29] = system: Rattus norvegicus; test: Toxicity in Wistar rat assessed as body weight at 100 mg/kg, po bid for 28 days; type: organism-based; set-up: dose 100 mg/kg, route oral; conditions: in vivo, 672 h
[30] = system: Rattus norvegicus; test: Toxicity in Wistar rat assessed as relative liver weight at 100 mg/kg, po bid for 28 days (reference value: 3.659 +/- 0.1 %); type: organism-based; set-up: dose 100 mg/kg, route oral; conditions: in vivo, 672 h
[31] = system: Rattus norvegicus; test: Toxicity in Wistar rat assessed as relative kidney weight at 100 mg/kg, po bid for 28 days (reference value: 0.821 +/- 0.03 %); type: organism-based; set-up: dose 100 mg/kg, route oral; conditions: in vivo, 672 h
[32] = system: Rattus norvegicus; test: Toxicity in Wistar rat assessed as relative spleen weight at 100 mg/kg, po bid for 28 days (reference value: 0.201+/- 0.007 %); type: organism-based; set-up: dose 100 mg/kg, route oral; conditions: in vivo, 672 h
[33] = system: Rattus norvegicus; test: Toxicity in Wistar rat assessed as relative brain weight at 100 mg/kg, po bid for 28 days (reference value: 0.727+/- 0.024 %); type: organism-based; set-up: dose 100 mg/kg, route oral; conditions: in vivo, 672 h

SMILES: COCCc1cc(COc2ccc([C@]3(N)CCN([C@H](CC(C)C)C(=O)NO)C3=O)cc2)c2ccccc2n1
- Activity [1]: 0.17 mg/dL
- Activity [2]: 21.04 U/L
- Activity [3]: 140.2 U/L
- IC50 [4]: 0.013 µM
- Activity [5]: 8.01 ×10⁶ /uL
- Activity [6]: 8.41 ×10³ /uL
- IC50 [7]: 0.0023 µM
- IC50 [8]: 1.2 µM
- IC50 [9]: 1.09 µM
- IC50 [10]: 1.01 µM
- IC50 [11]: 1 µM
- IC50 [12]: 1.21 µM
- IC50 [13]: 1.11 µM
- IC50 [14]: 1.08 µM
- Ratio IC50 [15]: > 500
- Ratio IC50 [16]: > 500
- Ratio IC50 [17]: > 500
- Ratio IC50 [18]: > 500
- Ratio IC50 [19]: > 500
- Ratio IC50 [20]: > 500
- half-life [21]: 1.09 h
- k el [22]: 0.000283 s⁻¹
- Tmax [23]: 0.33 h
- t1/2 [24]: 3.81 h
- Kel [25]: 0.44 h⁻¹
- AUC [26]: 11.8 µg·h/mL
- bioavailability [27]: 59.7%
- Activity [28]: Non-toxic
- Activity [29]: Non-toxic
- Activity [30]: 3.801%
- Activity [31]: 0.878%
- Activity [32]: 0.203%
- Activity [33]: 0.703%
